In doi:10.1101/2025.11.18.689169v1 (bioRxiv, 2025):

Legend:
[1] = free ICG; cited from earlier work
[2] = system: 4T1 mCherry mammary tumors; test: Live IVIS imaging of tumor accumulation and tumor-to-background ratio; assay type: in vivo, Balb/c mice; details: 50 nmole intravenous, after background cleared over time, day 2
[3] = system: 4T1 mouse breast cancer cells; test: Cellular uptake, confocal microscopy; assay type: cell-based; details: 4T1 cells, 10 µM ICG labeled PAs, 2 hours, 37°C, confocal microscope
[4] = system: 4T1 mCherry mammary tumors; test: Biodistribution by ICG fluorescence of tissue homogenates; assay type: in vivo, Balb/c mice; details: 50 nmole intravenous, tissue homogenates 2 days after injection

CC1(C)C(/C=C/C=C/C=C/C=C2\N(CCCCS(=O)(=O)O)c3ccc4ccccc4c3C2(C)C)=[N+](CCCCS(=O)(=O)[O-])c2ccc3ccccc3c21 [ICG, indocyanine green]
blood circulation half-life [1]: < 5 min

GGGHGDCDD [C12]
tumor-to-background ratio (TBR) [2]: 6

GGGHGDCDD [C16]
cellular uptake / membrane retention [3]: significant retention in the membrane | tumor-to-background ratio (TBR) [2]: > 10

GGGHGDCDD [C18]
cellular uptake / membrane retention [3]: significant retention in the membrane | tumor-to-background ratio (TBR) [2]: > 10 | tumor to liver ratio [4]: ~3.3
